# According to patent US20180161427A1, “COMBINATION OF AN ANTI-IL-10 ANTIBODY AND A CPG-C TYPE OLIGONUCLEOTIDE FOR TREATING CANCER” (MERCK SHARP & DOHME CORP., priority 2015, published 2018):
# Strand notation (5' to 3'): a small letter for the sugar, then the base; units joined by * are phosphorothioate-linked, units joined directly phosphodiester-linked; [ ] holds rarer units or linkages, { } end groups; capitals alone tell only the bases. d = 2'-deoxy (DNA)
# Assays:
# [1] = tested on: human tumor histocultures (renal cell carcinoma, NSCLC, bladder and colorectal cancer); experiment: Ex vivo treatment of human tumor histocultures, mRNA expression by real-time quantitative PCR; assay type: cell-based; settings: 0.1, 0.5, and 1 μM, 24 hours; RCC (n=5), NSCLC (n=3), bladder (n=1), colorectal (n=1) histocultures
# Procedure: Human tumor specimens from patients were obtained from commercial sources (Bio-Options, Folio, Coversant Bio, and Boston BioSource) and University of Rochester.
# Fresh tumor tissues were collected within 1 hour following surgery and placed into AQIX transportation media (AQIX, UK). Tissues were transported overnight at 4° C. to Merck Research Laboratories, Palo Alto, Calif.
# The tumors were embedded in UltraPure™ low melting point agarose (Invitrogen, Carlsbad, Calif.) and were cut 400 μm with Mcllwain™ Tissue Chopper (Stoelting Co., Wood Dale, Ill.). The tumor slices were first set on the Millicell-CM cell culture insert (Millipore, Billerica, Calif.) and cultured at the interface between air and medium of 1 ml DMEM supplemented with 4.5 g/L glucose, L-glutamine, sodium pyruvate (Mediatech, Inc., Manassas, Va.), 10% FBS (SAFC Biosciences, Lenexa, Kans.), 100 U/ml penicillin, and 100 ug/ml streptomycin in humidifed incubator at 37° C., 5% CO2.
# The tumor slices were cultured in the presence of 0.1, 0.5, and 1 μM C59-08 or 1 μM control ODN 1040 for 24 hours. The tumor samples were snap frozen in dry ice and stored at […] prior to processing.
# Total RNA was isolated by homogenization into RNA STAT-60 (Tel-Test, Friendswood, Tex.) using a polytron homogenizer. The total RNA was extracted according to the manufacturer's protocol. After precipitation with isopropanol, total RNA was re-extracted with phenol:chloroform:isoamyl alcohol (25:24:1) (Sigma-Aldrich, St. Louis, Mo.) using phase-lock light tubes.
# DNase-treated total RNA was reverse-transcribed using QuantiTect Reverse Transcription (Qiagen, Valencia, Calif.) according to manufacturer's protocol. […] Real-time quantitative PCR on 10 ng of cDNA from each sample was performed using unlabeled primers at 900 nM each with 250 nM of FAM-labeled probe in a TAQMAN™ RTqPCR reaction on the Fluidigm Biomark sequence detection system (Fluidigm, Foster City, Calif.). Levels of ubiquitin were measured in a separate reaction and were used to normalize the data by the Δ-Δ Ct method. […]
# [2] = tested on: TC-1 tumors; experiment: Anti-tumor activity in mouse TC-1 bilateral tumor model; assay type: in vivo; settings: antibody 10 mg/kg IP
# Source text: Approximately seven to eight week old female C57BL/6J mice were obtained from Jackson Laboratory (Sacramento, Calif.). Conventional animal chow and water were provided ad libitum. Animals were housed for one week prior to the start of the study. The average weight of the animals at the start of the study (i.e. tumor implantation) was 19 grams.
# The TC-1 cell line, provided by Johns Hopkins University (Baltimore, Md.) is derived from mouse primary lung epithelial cells that were cotransformed with human papilloma virus (HPV-16) E6 and E7 and c-Ha.ras oncogene (Lin K Y et al. Cancer Res. 1996 Jan. 1, 56(1):21-6). TC-1 cells are syngeneic to C57BL6/J strain.
# The TC-1 cells were cultured in DMEM supplemented with 10% fetal bovine serum and 0.4 mg/mL Geneticin. Sub-confluent TC-1 cells were injected subcutaneously (SC) in 0.1 mL of serum-free DMEM in both lower dorsal flanks (1×10^5 in right flank and 0.5×10^5 in left flank) of each animal. Animals were first shaved with electronic clippers in the areas that were used for the implantation.
# Tumors were measured the day before the first dose and twice a week thereafter. Tumor length and width were measured using electronic calipers and tumor volume determined using the formula Volume (mm^3)=0.5×Length×[…] where length is the longer dimension. Animals were weighed the day before the first dose and twice a week thereafter. […]
# [3] = tested on: Human peripheral blood mononuclear cells (PBMCs); experiment: Induction of IFNα2a and IL-10 in human PBMCs (48 hours, Meso Scale Discovery kits); assay type: cell-based
# Procedure: Human peripheral blood mononuclear cells (PBMCs) were isolated from buffy coats from two donors with Ficoll-Paque™ PLUS (GE Healthcare Bio-Sciences, Pittsburgh, Pa.) using standard Ficoll separation methods. Isolated PBMCs were washed twice in phosphate buffered saline (PBS) containing 2% fetal bovine serum (FBS), and 2 mM ethylenediaminetetraacetic acid (EDTA). The cells were resuspended and cultured in 96-well U-bottom plates at 1×10^6 cells per well in RPMI 1640 containing 10% FBS, 2 mM L-glutamine, 100 U/mL pencillin and 100 μg/mL streptomycin. The cells were cultured in the presence of C59-08 at doses ranging from 0.016 μM to 5 μM or 7 μM control ODN 1040 in a humidifed incubator at 37° C., 5% CO2 in final volume of 0.2 mL for 48 hours. Supernatants were harvested and assayed for IFNα2a and IL-10 using Meso Scale Discovery human IFNα2a and human IL-10 tissue culture kits (Rockville, Md.).
# [4] = 2 donors, 0.016 μM to 5 μM, supernatant
substance,measurement,setting,value
"5′-TCGAACGTTCGAACGTTCGAACGTTCGAAT-3′ (DNA dT*dC*dG*dA*dA*dC*dG*dT*dT*dC*dG*dA*dA*dC*dG*dT*dT*dC*dG*dA*dA*dC*dG*dT*dT*dC*dG*dA*dA*dT) [Compound C59-08, oligodeoxynucleotide with a phosphorothioate backbone and 5′OH and 3′OH; CpG class C type TLR9 agonist]","mRNA expression of IFNα-inducible genes (IFNα2, MCP1, MCP2, OAS2, IP-10, GBP1, ISG-54, MxB, and TRAIL)",[1],induced
same,"mRNA expression of cytokines (IFNβ, IL-10, IL-12, IL-6, and TNFα)",[1],induced
same,"mRNA expression of immune activation markers (CD80, CD86, CD40, CD70 and OX40L)",[1],induced
same,Complete regressions (CRs) of non-injected tumors,"[2]; left flank tumor, ODN IT only in right tumors on Days 0, 4, 8, 12",did not result in CRs
same,Complete regressions (CRs) of injected tumors,"[2]; right flank tumor, ODN IT (C59-08 2.5 mg/kg, CpG 1826 1 mg/kg) on Days 0, 4, 8, 12",did not result in CRs
same,optimal concentration for IFNα2a and IL-10 production,[3],0.2 µM
same,IFNα2a production,[3]; [4],induces
same,IL-10 production,[3]; [4],induces
